Data from patent US12662491B2 (Redona Therapeutics, Inc., priority 2020, dated 2026).
Read-outs that look alike come from different tables or passages of the source.

Biological target: T1, Zcchc11 enzyme (Homo sapiens, UniProt Q5TAX3)
T1 construct: made in house; host or cells: HEK293 cells (Zcchc11); E. coli Rosetta II (LIN28A)
T1 sequence (Q5TAX3 212-1420): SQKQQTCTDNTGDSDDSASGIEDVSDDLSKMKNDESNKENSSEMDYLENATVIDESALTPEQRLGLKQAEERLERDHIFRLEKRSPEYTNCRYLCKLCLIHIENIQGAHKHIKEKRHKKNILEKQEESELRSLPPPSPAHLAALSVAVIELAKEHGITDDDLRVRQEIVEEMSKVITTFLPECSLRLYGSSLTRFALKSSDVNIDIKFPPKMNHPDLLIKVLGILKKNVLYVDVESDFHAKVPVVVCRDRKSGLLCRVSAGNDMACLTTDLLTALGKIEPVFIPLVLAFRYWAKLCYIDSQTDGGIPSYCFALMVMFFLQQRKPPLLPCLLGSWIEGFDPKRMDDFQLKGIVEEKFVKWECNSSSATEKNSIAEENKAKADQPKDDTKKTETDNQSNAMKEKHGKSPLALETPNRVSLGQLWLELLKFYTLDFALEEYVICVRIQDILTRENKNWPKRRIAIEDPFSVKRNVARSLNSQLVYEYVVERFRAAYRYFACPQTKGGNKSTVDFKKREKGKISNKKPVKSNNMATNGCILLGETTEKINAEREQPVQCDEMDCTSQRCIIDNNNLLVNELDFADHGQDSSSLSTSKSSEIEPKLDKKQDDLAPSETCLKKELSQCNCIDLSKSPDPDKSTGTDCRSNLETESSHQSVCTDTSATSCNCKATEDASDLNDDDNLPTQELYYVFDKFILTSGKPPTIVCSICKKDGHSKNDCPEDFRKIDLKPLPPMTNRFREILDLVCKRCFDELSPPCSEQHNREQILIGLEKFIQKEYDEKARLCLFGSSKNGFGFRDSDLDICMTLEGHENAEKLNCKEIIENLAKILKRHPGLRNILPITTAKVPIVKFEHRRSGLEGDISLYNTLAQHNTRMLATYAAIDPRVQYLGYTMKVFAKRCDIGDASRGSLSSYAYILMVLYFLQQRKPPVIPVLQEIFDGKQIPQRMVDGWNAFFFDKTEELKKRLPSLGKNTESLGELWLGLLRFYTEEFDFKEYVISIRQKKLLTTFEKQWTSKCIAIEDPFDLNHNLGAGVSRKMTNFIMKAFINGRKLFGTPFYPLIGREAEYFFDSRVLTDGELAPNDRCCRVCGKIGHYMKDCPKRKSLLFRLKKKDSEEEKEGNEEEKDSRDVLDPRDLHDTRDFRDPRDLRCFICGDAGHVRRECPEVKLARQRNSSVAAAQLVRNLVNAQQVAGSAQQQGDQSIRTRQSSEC
Assay: TUTase assay (Zcchc11 assay, Lin28a-dependent polyuridylation of pre-let-7)
Format: biochemical
Details: read-out: Potency Lin28a-dep Z11 IC50
Summary of the method: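 Potency is measured as inhibition of LIN28A-driven U-tail addition to 2 nM pre-let-7 by 0.2 nM HEK293-derived Zcchc11 fragment with 5 uM UTP at room temperature. Tail growth appears as fluorescein quenching by an annealing rhodamine-A20 probe.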

[1] = Lin28a-dependent Zcchc11 (Z11) TUTase assay
[2] = Lin28a-dependent Zcchc11 (Z11) TUTase activity

SMILES	IC50 [1] [nM]	IC50 [2] [nM]	other results
Cc1ccc(F)c(OC[C@H]2C[C@H]3C[C@H]3N2c2cc3c(cc2F)c(=O)c(C(=O)O)cn3-c2ccc(N(C)C)nc2)n1 [Compound 344, 1-[6-(Dimethyl-amino)pyridin-3-yl]-6-fluoro-7-[(1R,3R,5R)-3-{[(3-fluoro-6-methylpyridin-2-yl)oxy]methyl}-2-azabicyclo [3.1.0]hexan-2-yl]-4-oxoquinoline-3-carboxylic acid]	–	≤ 1000	–
O=C(O)c1cn(-c2ccc(O)cc2F)c2cc(N3CCC[C@@H]3COc3ccccn3)c(F)cc2c1=O [Example 381, (R)-6-fluoro-1-(2-fluoro-4-hydroxyphenyl)-4-oxo-7-(2-((pyridin-2-yloxy)methyl)pyrrolidin-1-yl)-1,4-dihydroquinoline-3-carboxylic acid]	1000 to 10000	–	–
COc1ccc(F)c(OC[C@H]2C[C@H]3C[C@H]3N2c2cc3c(cc2F)c(=O)c(C(=O)O)cn3-c2ccnc(N)c2)n1 (racemic) [Compound 235, Rac-1-(2-aminopyridin-4-yl)-6-fluoro-7-((1R,3R,5R)-3-(((3-fluoro-6-methoxy-pyridin-2-yl)oxy)methyl)-2-azabicyclo [3.1.0]hexan-2-yl)-4-oxo-1,4-dihydro-quinoline-3-carboxylic acid]	–	≤ 1000	–
O=C(O)c1cn(-c2cc(F)ccc2F)c2cc(N3CCC[C@@H]3COc3ccccn3)c(F)cc2c1=O [Compound 143, (R)-1-(2,5-difluorophenyl)-6-fluoro-4-oxo-7-(2-((pyridin-2-yloxy)methyl)pyrrolidin-1-yl)-1,4-dihydro-quinoline-3-carboxylic acid]	–	1000 to 10000	–
O=C(O)c1cn(-c2ccc(O)cc2F)c2cc(N3CCC[C@@H]3COc3ccccn3)c(Cl)cc2c1=O [Compound 95, (R)-6-chloro-1-(2-fluoro-4-hydroxy-phenyl)-4-oxo-7-(2-((pyridin-2-yloxy)methyl)pyrrolidin-1-yl)-1,4-dihydro-quinoline-3-carboxylic acid]	–	≤ 1000	–
Cc1ccc(Cl)c(OC[C@H]2C[C@H]3C[C@H]3N2c2cc3c(cc2Cl)c(=O)c(C(=O)O)cn3-c2ccc(N(C)C)nc2)n1 [Compound 308, 6-chloro-7-[(1R,3R,5R)-3-{[(3-chloro-6-methylpyridin-2-yl)oxy]methyl}-2-azabicyclo [3.1.0]hexan-2-yl]-1-[6-(dimethyl-amino)pyridin-3-yl]-4-oxoquinoline-3-carboxylic acid]	–	≤ 1000	–
O=C(O)c1cn(-c2ccc(O)cc2Cl)c2cc(N3CCC[C@@H]3COc3ccccn3)c(F)cc2c1=O [Example 384, (R)-1-(2-chloro-4-hydroxyphenyl)-6-fluoro-4-oxo-7-(2-((pyridin-2-yloxy)methyl)pyrrolidin-1-yl)-1,4-dihydroquinoline-3-carboxylic acid]	1000 to 10000	–	–
COc1ccc(Cl)c(OCC2N(c3cc4c(cc3Cl)c(=O)c(C(=O)O)cn4-c3cc(N)cnn3)CCC2(C)C)n1 (centres unmarked) [Example 67, 1-(5-Aminopyridazin-3-yl)-6-chloro-7-(2-(((3-chloro-6-methoxypyridin-2-yl)oxy)methyl)-3,3-dimethylpyrrolidin-1-yl)-4-oxo-1,4-dihydroquinoline-3-carboxylic acid]	–	–	IC50 (LIN28A 10 nM, Zcchc11 0.2 nM, 5′-fluorescein pre-let-7 miRNA 2 nM, UTP 5 uM, room temperature, 30 minutes pre-incubation): ≤ 1000 nM
CS(=O)(=O)Nc1ccc(-n2cc(C(=O)O)c(=O)c3cc(F)c(N4CCC[C@@H]4COc4ccccn4)cc32)cc1 [Compound 148, (R)-6-fluoro-1-(4-(methyl-sulfonamido)phenyl)-4-oxo-7-(2-((pyridin-2-yloxy)methyl)pyrrolidin-1-yl)-1,4-dihydro-quinoline-3-carboxylic acid]	–	≤ 1000	–
CN(C)C1CN(c2ncc(-n3cc(C(=O)O)c(=O)c4cc(Cl)c(N5CCC[C@]5(C)COc5ncccc5Cl)nc43)cn2)C1 [Example 622, (R)-6-chloro-7-(2-(((3-chloropyridin-2-yl)oxy)methyl)-2-methylpyrrolidin-1-yl)-1-(2-(3-(dimethylamino)azetidin-1-yl)pyrimidin-5-yl)-4-oxo-1,4-dihydro-1,8-naphthyridine-3-carboxylic acid]	1000 to 10000	–	–
O=C(O)c1cn(-c2cc(F)cc(F)c2)c2cc(N3CCC[C@@H]3COc3ccccn3)c(F)cc2c1=O [Compound 144, (R)-1-(3,5-difluorophenyl)-6-fluoro-4-oxo-7-(2-((pyridin-2-yloxy)methyl)pyrrolidin-1-yl)-1,4-dihydro-quinoline-3-carboxylic acid]	–	1000 to 10000	–
Cc1cccnc1OC[C@H]1CCCN1c1cc2c(cc1Br)c(=O)c(C(=O)O)cn2C1(C)CC1 [Example 365, 6-Bromo-1-(1-methylcyclo-propyl)-7-[(2R)-2-{[(3-methyl-pyridin-2-yl)oxy]methyl}pyrrolidin-1-yl]-4-oxo-1,4-dihydroquinoline-3-carboxylic acid]	1000 to 10000	–	–

Further lines, with some results ahead:

IC50 [1] [nM]	IC50 [2] [nM]	SMILES	other results
≤ 1000	–	COc1ccc(-n2cc(C(=O)O)c(=O)c3cc(F)c(N4CCC[C@@H]4COc4ccccn4)cc32)cc1 [Example 401, (R)-6-fluoro-1-(4-methoxyphenyl)-4-oxo-7-(2-((pyridin-2-yloxy)methyl)pyrrolidin-1-yl)-1,4-dihydroquinoline-3-carboxylic acid]	–
≤ 1000	–	COCCNc1ccc(-n2cc(C(=O)O)c(=O)c3cc(Cl)c(N4CCC[C@@H]4COc4ncccc4Cl)cc32)cn1 [Example 413, (R)-6-chloro-7-(2-(((3-chloropyridin-2-yl)oxy)methyl)pyrrolidin-1-yl)-1-(6-((2-methoxyethyl)amino)pyridin-3-yl)-4-oxo-1,4-dihydroquinoline-3-carboxylic acid]	–
≤ 1000	–	O=C(O)c1cn(-c2ccncc2)c2cc(N3CCC[C@@H]3COc3ncccc3Cl)c(Cl)cc2c1=O [Example 490, (R)-6-chloro-7-(2-(((3-chloropyridin-2-yl)oxy)methyl)pyrrolidin-1-yl)-4-oxo-1-(pyridin-4-yl)-1,4-dihydroquinoline-3-carboxylic acid]	–
–	≤ 1000	Cc1cccnc1OC[C@H]1CCCN1c1cc2c(cc1F)c(=O)c(C(=O)O)cn2-c1ccc(N)nc1 [Compound 208, (R)-1-(6-aminopyridin-3-yl)-6-fluoro-7-(2-(((3-methylpyridin-2-yl)oxy)methyl)pyrrolidin-1-yl)-4-oxo-1,4-dihydro-quinoline-3-carboxylic acid]	–
≤ 1000	–	COCCN(C)C1CN(c2ccc(-n3cc(C(=O)O)c(=O)c4cc(F)c(N5CCC[C@@H]5COc5ncccc5Cl)cc43)cn2)C1 [Example 614, (R)-7-(2-(((3-chloropyridin-2-yl)oxy)methyl)pyrrolidin-1-yl)-6-fluoro-1-(6-(3-((2-methoxyethyl) (methyl)amino)azetidin-1-yl)pyridin-3-yl)-4-oxo-1,4-dihydroquinoline-3-carboxylic acid]	–
≤ 1000	–	CN(C)CCNc1cnc(-n2cc(C(=O)O)c(=O)c3cc(Cl)c(N4CCC[C@@H]4COc4ncccc4Cl)cc32)cn1 [Example 492, (R)-6-chloro-7-(2-(((3-chloropyridin-2-yl)oxy)methyl)pyrrolidin-1-yl)-1-(5-((2-(dimethylamino)ethyl)amino)pyrazin-2-yl)-4-oxo-1,4-dihydroquinoline-3-carboxylic acid]	–
1000 to 10000	–	CN(C)C1CN(c2ccc(-n3cc(C(=O)O)c(=O)c4cc(Cl)c(N5CCC[C@@H]5COC5CCOCC5)cc43)cn2)C1 [Example 595, (R)-6-chloro-1-(6-(3-(dimethylamino)azetidin-1-yl)pyridin-3-yl)-4-oxo-7-(2-(((tetrahydro-2H-pyran-4-yl)oxy)methyl)pyrrolidin-1-yl)-1,4-dihydroquinoline-3-carboxylic acid]	–
–	≤ 1000	COc1ccc(Cl)c(OC[C@H]2C[C@H]3C[C@H]3N2c2cc3c(cc2F)c(=O)c(C(=O)O)cn3-c2ccc(N3CC(N(C)C)C3)nc2)n1 (racemic) [Compound 234, Rac-7-((1R,3R,5R)-3-(((3-chloro-6-methoxy-pyridin-2-yl)oxy)methyl)-2-azabicyclo [3.1.0]hexan-2-yl)-1-(6-(3-(dimethyl-amino)azetidin-1-yl)pyridin-3-yl)-6-fluoro-4-oxo-1,4-dihydro-quinoline-3-carboxylic acid]	–
